Test results: BindingDB's records for doi:10.1021/acsmedchemlett.6b00299 (University of Michigan, 2016)

Experiment: Inhibition of human serum factor D-mediated complement activation in rabbit erythrocytes assessed as reduction in rabbit erythrocyte hemolysis preincubated with human serum for 15 mins followed by addition of rabbit erythrocytes and Mg-EGTA measured after 30 mins

SMILES | IC50 [µM]
NC(=O)c1nn(CC(=O)N2CCS[C@H]2C(=O)Nc2cccc(Br)n2)c2ncccc12 | 0.205
NC(=O)c1nn(CC(=O)N2[C@@H]3C[C@@H]3C[C@H]2C(=O)Nc2cccc(Br)n2)c2ncccc12 | 0.047
